Experimental data taken from the supplement of paper PMC10307832.

Assays:
Assay in all cases: relative viability (nuclei count vs DMSO), 5 days (fraction); higher = more cells survive
SK-MES-1 = test system: SK-MES-1
In short: (§1)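 Lung cancer cell lines in 1536-well plates got either a single drug or a fixed anchor-drug dose together with five library-drug doses (not always all listed) in √10 steps, by pin tool, on the day after seeding. Nuclei were counted after 5 days, and relative viability is the treated-to-vehicle ratio of nuclei counts. Values are medians of duplicate plates.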

LK-2 = test system: LK-2
In short: as §1

NCI-H1563 = test system: NCI-H1563
In short: as §1

PC-3 [JPC-3] = test system: PC-3 [JPC-3]
In short: as §1

EMC-BAC-2 = test system: EMC-BAC-2
In short: as §1

NCI-H520 = test system: NCI-H520
In short: as §1

NCI-H596 = test system: NCI-H596
In short: as §1

NCI-H1666 = test system: NCI-H1666
In short: as §1

NCI-H1755 = test system: NCI-H1755
In short: as §1

LOU-NH91 = test system: LOU-NH91
In short: as §1

NCI-H1975 = test system: NCI-H1975
In short: as §1

H3255 = test system: H3255
In short: as §1

A-427 = test system: A-427
In short: as §1

COR-L 105 = test system: COR-L 105
In short: as §1

NCI-H23 = test system: NCI-H23
In short: as §1

EKVX = test system: EKVX
In short: as §1

HCC-366 = test system: HCC-366
In short: as §1

NCI-H441 = test system: NCI-H441
In short: as §1

NCI-H1734 = test system: NCI-H1734
In short: as §1

NCI-H2170 = test system: NCI-H2170
In short: as §1

## COc1nc(C)cnc1NS(=O)(=O)c1cccnc1-c1ccc(-c2nnco2)cc1 [Zibotentan] + Cc1nc(NC(=O)N2CCC[C@H]2C(N)=O)sc1-c1ccnc(C(C)(C)C(F)(F)F)c1 [Alpelisib] (partner 2 µM)
SK-MES-1; first compound 0.08 µM
  relative viability: 0.947
SK-MES-1; first compound 0.253 µM
  relative viability: 0.871
SK-MES-1; first compound 0.8 µM
  relative viability: 0.948
SK-MES-1; first compound 2.53 µM
  relative viability: 0.989
LK-2; first compound 0.08 µM
  relative viability: 1.08
LK-2; first compound 0.253 µM
  relative viability: 0.911
LK-2; first compound 0.8 µM
  relative viability: 0.889
LK-2; first compound 2.53 µM
  relative viability: 1.46
NCI-H1563; first compound 0.08 µM
  relative viability: 0.978
NCI-H1563; first compound 0.253 µM
  relative viability: 0.666
NCI-H1563; first compound 0.8 µM
  relative viability: 1.01
NCI-H1563; first compound 2.53 µM
  relative viability: 1.02
PC-3 [JPC-3]; first compound 0.08 µM
  relative viability: 1.01
PC-3 [JPC-3]; first compound 0.253 µM
  relative viability: 1.06
PC-3 [JPC-3]; first compound 0.8 µM
  relative viability: 1.05
PC-3 [JPC-3]; first compound 2.53 µM
  relative viability: 1.04
EMC-BAC-2; first compound 0.08 µM
  relative viability: 0.78
EMC-BAC-2; first compound 0.253 µM
  relative viability: 0.72
EMC-BAC-2; first compound 0.8 µM
  relative viability: 0.714
EMC-BAC-2; first compound 2.53 µM
  relative viability: 0.782
NCI-H520; first compound 0.08 µM
  relative viability: 0.928
NCI-H520; first compound 0.253 µM
  relative viability: 0.848
NCI-H520; first compound 0.8 µM
  relative viability: 0.768
NCI-H520; first compound 2.53 µM
  relative viability: 0.972
NCI-H596; first compound 0.08 µM
  relative viability: 0.532
NCI-H596; first compound 0.253 µM
  relative viability: 0.482
NCI-H596; first compound 0.8 µM
  relative viability: 0.485
NCI-H596; first compound 2.53 µM
  relative viability: 0.484
NCI-H1666; first compound 0.08 µM
  relative viability: 1.12
NCI-H1666; first compound 0.253 µM
  relative viability: 0.724
NCI-H1666; first compound 0.8 µM
  relative viability: 1.18
NCI-H1666; first compound 2.53 µM
  relative viability: 0.993
NCI-H1755; first compound 0.08 µM
  relative viability: 0.887
NCI-H1755; first compound 0.253 µM
  relative viability: 0.911
NCI-H1755; first compound 0.8 µM
  relative viability: 0.937
NCI-H1755; first compound 2.53 µM
  relative viability: 0.94
LOU-NH91; first compound 0.08 µM
  relative viability: 0.749
LOU-NH91; first compound 0.253 µM
  relative viability: 0.696
LOU-NH91; first compound 0.8 µM
  relative viability: 0.785
LOU-NH91; first compound 2.53 µM
  relative viability: 0.702
NCI-H1975; first compound 0.08 µM
  relative viability: 0.635
NCI-H1975; first compound 0.253 µM
  relative viability: 0.548
NCI-H1975; first compound 0.8 µM
  relative viability: 0.642
NCI-H1975; first compound 2.53 µM
  relative viability: 0.585
H3255; first compound 0.08 µM
  relative viability: 0.712
H3255; first compound 0.253 µM
  relative viability: 0.698
H3255; first compound 0.8 µM
  relative viability: 0.672
H3255; first compound 2.53 µM
  relative viability: 0.727
A-427; first compound 0.08 µM
  relative viability: 1.08
A-427; first compound 0.253 µM
  relative viability: 1.14
A-427; first compound 0.8 µM
  relative viability: 1.09
A-427; first compound 2.53 µM
  relative viability: 1.08
COR-L 105; first compound 0.08 µM
  relative viability: 1.13
COR-L 105; first compound 0.253 µM
  relative viability: 0.892
COR-L 105; first compound 0.8 µM
  relative viability: 1.21
COR-L 105; first compound 2.53 µM
  relative viability: 0.93
NCI-H23; first compound 0.08 µM
  relative viability: 0.679
NCI-H23; first compound 0.253 µM
  relative viability: 0.7
NCI-H23; first compound 0.8 µM
  relative viability: 0.681
NCI-H23; first compound 2.53 µM
  relative viability: 0.726
EKVX; first compound 0.08 µM
  relative viability: 0.927
EKVX; first compound 0.253 µM
  relative viability: 0.86
EKVX; first compound 0.8 µM
  relative viability: 0.775
EKVX; first compound 2.53 µM
  relative viability: 0.82
HCC-366; first compound 0.08 µM
  relative viability: 0.561
HCC-366; first compound 0.253 µM
  relative viability: 0.373
HCC-366; first compound 0.8 µM
  relative viability: 0.474
HCC-366; first compound 2.53 µM
  relative viability: 0.497
NCI-H441; first compound 0.08 µM
  relative viability: 0.757
NCI-H441; first compound 0.8 µM
  relative viability: 0.776
NCI-H441; first compound 2.53 µM
  relative viability: 0.779
NCI-H1734; first compound 0.08 µM
  relative viability: 0.794
NCI-H1734; first compound 0.253 µM
  relative viability: 0.726
NCI-H1734; first compound 0.8 µM
  relative viability: 0.681
NCI-H1734; first compound 2.53 µM
  relative viability: 0.686
NCI-H2170; first compound 0.08 µM
  relative viability: 0.802
NCI-H2170; first compound 0.253 µM
  relative viability: 0.791
NCI-H2170; first compound 0.8 µM
  relative viability: 0.889
NCI-H2170; first compound 2.53 µM
  relative viability: 0.835
